According to patent US20030211605A1, “Derivation of midbrain dopaminergic neurons from embryonic stem cells” (priority 2003, published 2003):

Key:
Type in all cases: cell-based, mouse
ES-derived neuron = test: Patch clamp recording of synaptic activity of differentiated ES-derived neurons; conditions: 10 mM, pressure application; 13 days of differentiation; FIG. 9B/9C
ES cells [1] = test: Comparison of N2 and N3FL media: total, TUJ1+ and TH+ cells after differentiation; conditions: for phenotype of the ES cell derived population: variation of concentration in the medium
ES cells [2] = test: Yield of TH+ neurons (TH/TUJ1 immunocytochemistry) in differentiated ES cell cultures; conditions: SHH 500 ng/ml, FGF8 100 ng/ml, cAMP 1 mM, ascorbic acid 200 μM, added at different stages; FIG. 4
Description: Specifically, the cells were dissociated by adding a solution of 0.05% typsin and 0.04% EDTA to the plates and incubating at 37° C. for 5 minutes. The dissociated cells were plated on tissue culture plastic or glass coverslips at a concentration of 1.5-2×10^6 cm^2 in serum free N2 medium supplemented with 1 μg/ml of laminin and 10 ng/ml of basic fibroblast growth factor (bFGF, R&D Systems, Minneapolis, Minn.). The medium was also supplemented with murine aminoterminal fragment SHH (500 ng/ml); murine FGF8 isoform b (100 ng/ml, both from R& D System); and ascorbic acid (200 μM, Sigma). Control cultures were treated identically except that no SHH or FGF8 was applied during cell proliferation.
Differentiation (stage 5) was induced using a modification of Okabe et al., using N2 medium instead of N3FL medium. […]
Uniform random sampling procedure were used for cell counts and quantified using the fractionator technique (Gundersen et al., (1988) “Some new, simple and efficient stereological methods and their use in pathological research and diagnosis,” APIMS 96:379-394). […] Data expressed as mean±SEM.
Yield of TH+ neurons is expressed as a percentage of all TUJ1+ neurons.

Molecule | response to application to the dendrites of a differentiated neuron (ES-derived neuron) | phenotype of the ES cell derived population (ES cells [1]) | other results
NCCCC(=O)O [GABA, gamma amino butyric acid] | inward current |  | 
O=S(=O)(O)CCN1CCN(CCO)CC1 [HEPES, 4-(2-hydroxyethyl)-1-piperazine-ethanesulfonic acid] |  |  | percentage of TUJ1 and TH+ cells (ES cells [1]; substitution of bicarbonate (N2) by HEPES (N3FL), FIG. 8): dramatically reduced
O=C1O[C@H]([C@@H](O)CO)C(O)=C1O [ascorbic acid] |  |  | yield of TH+ neurons (percentage of all TUJ1+ neurons) (ES cells [2]): increase the yield of TH+ neurons
N[C@@H](CCC(=O)O)C(=O)O [glutamate] | inward current |  | 
NC(=O)CC[C@H](N)C(=O)O [glutamine] |  | did not significantly affect | 
transferrin |  | did not significantly affect | 
